Holding throughout (type): biochemical
The target of experiment [1] is T1, PDE2 partially purified from human platelets (Homo sapiens, UniProt O00408).
T1 construct: PDE2 partially purified from human platelets was used; from tissue; host or cells: human platelets
Briefly: PDE2 enzyme inhibition assay ([3H]cAMP hydrolysis, scintillation counting). The text has this: (§1) In this example, a racemic mixture of monochloroflosequinan and the sulfone derivative of monochloroflosequinan were independently subjected to biochemical enzyme assays to determine their respective percent inhibition of a variety of phosphodiesterases (PDE1-PDE6). The methods used have been adapted from those described in the scientific literature, see Hidaka and Asano “Human blood platelet 3′:5′ cyclic nucleotide phosphodiesterase. Isolation of low-Km and high Km phosphodiesterase.” Biochem. Biophys. Acta 429:485 (1976); Nicholoson et at. “Differential modulation of tissue function and therapeutic potential of selective inhibitors of cyclic nucleotide phosphodiesterase isoenzymes” Trends Pharmacol. Sci. 12:19 (1991); Cortijo et al. “Investigation into the role of phosphodiesterase IV in bronchorelaxation, including studies with hyman bronchus.” Br. J. Pharmacol. 108:562 (1993); Baehr et al. “Isolation and characterization of cGMP phosphodiesterase from bovine rod outer segments.” J. Biol. Chem. 254:11669 (1979) and Gillespie and Beavo “Inhibition and stimulation of photoreceptor phosphodiesterase by dipyridamole and M&B 22,948” Molecular Pharm. 36:773 (1989). […]
PDE2: PDE2 partially purified from human platelets was used. […] Unhydrolyzed cAMP was bound to AGI-X2 resin, and the remaining [^3H]adenosine in the aqueous phase was quantitated by scintillation counting.

Experiment [2] deals with T2, PDE3 partially purified from human platelets (Homo sapiens, UniProt Q14432).
T2 construct: PDE3 partially purified from human platelets was used; from tissue; host or cells: human platelets
Description: PDE3 enzyme inhibition assay ([3H]cAMP hydrolysis, scintillation counting). The note with it: for IC50: varying concentrations 300-1 μM. The source says:
In this example, a racemic mixture of monochloroflosequinan and the sulfone derivative of monochloroflosequinan were independently subjected to biochemical enzyme assays to determine their respective percent inhibition of a variety of phosphodiesterases (PDE1-PDE6). The methods used have been adapted from those described in the scientific literature, see Hidaka and Asano “Human blood platelet 3′:5′ cyclic nucleotide phosphodiesterase. Isolation of low-Km and high Km phosphodiesterase.” Biochem. Biophys. Acta 429:485 (1976); Nicholoson et at. “Differential modulation of tissue function and therapeutic potential of selective inhibitors of cyclic nucleotide phosphodiesterase isoenzymes” Trends Pharmacol. Sci. 12:19 (1991); Cortijo et al. “Investigation into the role of phosphodiesterase IV in bronchorelaxation, including studies with hyman bronchus.” Br. J. Pharmacol. 108:562 (1993); Baehr et al. “Isolation and characterization of cGMP phosphodiesterase from bovine rod outer segments.” J. Biol. Chem. 254:11669 (1979) and Gillespie and Beavo “Inhibition and stimulation of photoreceptor phosphodiesterase by dipyridamole and M&B 22,948” Molecular Pharm. 36:773 (1989). A brief summary of the conditions for each enzyme assay is provided below:
PDE3: PDE3 partially purified from human platelets was used. The compounds were independently incubated with 13 μg PDE3 enzyme and 1.01 μM [^3H]cAMP+cAMP in Tris buffer pH 7.5 for 20 minutes at either 25° C. or 30° C. The reaction was terminated by boiling for 2 minutes, and the resulting AMP was converted to adenosine by addition of 10 mg/ml snake venom nucleotidase and further incubation at 30° C. for 10 minutes. Unhydrolyzed cAMP was bound to AGI-X2 resin, and the remaining [^3H]adenosine in the aqueous phase was quantitated by scintillation counting.

The target in experiment [3] is T3, PDE1 partially purified from bovine heart (Bos taurus, UniProt P14100).
T3 construct: PDE1 partially purified from bovine heart was used; from tissue; host or cells: bovine heart
Briefly: PDE1 enzyme inhibition assay ([3H]cAMP hydrolysis, scintillation counting).
Excerpt: as §1
PDE1: PDE1 partially purified from bovine heart was used. […] Unhydrolyzed cAMP was bound to AGI-X2 resin, and the remaining [^3H]adenosine in the aqueous phase was quantitated by scintillation counting.

Setting [4] is: 100 μM compound, 30° C., 1% DMSO vehicle.
Setting [5] is: varying concentrations 300-1 μM.

Molecules are shown by their SMILES.

T2 sequence (Q14432 whole entry): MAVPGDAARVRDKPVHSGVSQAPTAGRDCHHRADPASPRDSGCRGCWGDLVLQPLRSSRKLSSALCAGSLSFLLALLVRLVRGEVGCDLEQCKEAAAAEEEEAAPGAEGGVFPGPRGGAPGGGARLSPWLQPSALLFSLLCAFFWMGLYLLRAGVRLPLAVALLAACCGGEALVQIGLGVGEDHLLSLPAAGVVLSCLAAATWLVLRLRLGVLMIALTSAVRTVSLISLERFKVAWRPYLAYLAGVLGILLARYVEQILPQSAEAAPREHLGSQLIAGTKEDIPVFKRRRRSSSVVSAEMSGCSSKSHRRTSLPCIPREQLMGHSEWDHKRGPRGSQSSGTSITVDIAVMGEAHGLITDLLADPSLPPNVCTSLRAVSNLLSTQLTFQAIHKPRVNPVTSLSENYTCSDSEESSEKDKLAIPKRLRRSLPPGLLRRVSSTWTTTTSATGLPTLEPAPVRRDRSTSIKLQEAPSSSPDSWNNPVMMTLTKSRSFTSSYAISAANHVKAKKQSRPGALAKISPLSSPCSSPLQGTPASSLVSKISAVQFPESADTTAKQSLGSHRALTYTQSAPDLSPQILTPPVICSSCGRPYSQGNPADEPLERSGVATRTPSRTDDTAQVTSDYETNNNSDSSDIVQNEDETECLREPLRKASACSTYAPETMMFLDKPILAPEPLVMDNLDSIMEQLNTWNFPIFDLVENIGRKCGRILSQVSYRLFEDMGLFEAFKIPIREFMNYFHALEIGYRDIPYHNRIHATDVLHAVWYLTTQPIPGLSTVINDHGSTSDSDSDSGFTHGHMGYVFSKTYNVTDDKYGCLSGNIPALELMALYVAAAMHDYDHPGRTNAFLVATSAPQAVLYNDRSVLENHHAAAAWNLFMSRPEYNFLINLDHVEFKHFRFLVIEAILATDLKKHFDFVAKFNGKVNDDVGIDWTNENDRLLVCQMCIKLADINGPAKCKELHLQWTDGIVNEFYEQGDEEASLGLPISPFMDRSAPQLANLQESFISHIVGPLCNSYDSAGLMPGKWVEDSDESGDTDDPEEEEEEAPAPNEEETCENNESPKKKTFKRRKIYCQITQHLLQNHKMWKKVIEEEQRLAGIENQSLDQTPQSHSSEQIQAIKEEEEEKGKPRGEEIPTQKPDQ
T1 sequence (O00408 whole entry): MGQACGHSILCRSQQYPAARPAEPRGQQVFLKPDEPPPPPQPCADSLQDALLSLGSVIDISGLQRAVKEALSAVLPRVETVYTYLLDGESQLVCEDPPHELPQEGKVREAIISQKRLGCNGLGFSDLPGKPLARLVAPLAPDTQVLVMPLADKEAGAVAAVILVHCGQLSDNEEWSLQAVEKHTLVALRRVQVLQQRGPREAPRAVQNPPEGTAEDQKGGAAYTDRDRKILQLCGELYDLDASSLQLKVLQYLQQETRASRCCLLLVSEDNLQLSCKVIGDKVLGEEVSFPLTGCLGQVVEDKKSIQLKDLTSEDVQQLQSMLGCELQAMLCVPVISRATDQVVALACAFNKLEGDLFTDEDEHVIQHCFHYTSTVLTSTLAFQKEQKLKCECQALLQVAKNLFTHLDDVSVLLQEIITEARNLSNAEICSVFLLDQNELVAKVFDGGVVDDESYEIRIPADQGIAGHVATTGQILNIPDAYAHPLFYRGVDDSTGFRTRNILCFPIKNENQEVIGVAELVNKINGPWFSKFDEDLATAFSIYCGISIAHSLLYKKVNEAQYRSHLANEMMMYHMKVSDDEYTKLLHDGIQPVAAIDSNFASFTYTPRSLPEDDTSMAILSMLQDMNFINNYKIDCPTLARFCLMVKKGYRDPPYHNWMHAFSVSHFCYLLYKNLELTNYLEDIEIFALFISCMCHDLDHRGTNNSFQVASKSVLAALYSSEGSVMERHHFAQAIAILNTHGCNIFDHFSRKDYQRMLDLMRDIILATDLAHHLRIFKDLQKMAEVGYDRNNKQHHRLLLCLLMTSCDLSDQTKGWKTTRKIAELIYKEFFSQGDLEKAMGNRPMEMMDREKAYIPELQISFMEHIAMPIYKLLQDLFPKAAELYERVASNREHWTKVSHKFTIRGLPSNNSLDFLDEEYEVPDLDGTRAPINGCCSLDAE
T3 sequence (P14100 1-514 isoform P14100-2): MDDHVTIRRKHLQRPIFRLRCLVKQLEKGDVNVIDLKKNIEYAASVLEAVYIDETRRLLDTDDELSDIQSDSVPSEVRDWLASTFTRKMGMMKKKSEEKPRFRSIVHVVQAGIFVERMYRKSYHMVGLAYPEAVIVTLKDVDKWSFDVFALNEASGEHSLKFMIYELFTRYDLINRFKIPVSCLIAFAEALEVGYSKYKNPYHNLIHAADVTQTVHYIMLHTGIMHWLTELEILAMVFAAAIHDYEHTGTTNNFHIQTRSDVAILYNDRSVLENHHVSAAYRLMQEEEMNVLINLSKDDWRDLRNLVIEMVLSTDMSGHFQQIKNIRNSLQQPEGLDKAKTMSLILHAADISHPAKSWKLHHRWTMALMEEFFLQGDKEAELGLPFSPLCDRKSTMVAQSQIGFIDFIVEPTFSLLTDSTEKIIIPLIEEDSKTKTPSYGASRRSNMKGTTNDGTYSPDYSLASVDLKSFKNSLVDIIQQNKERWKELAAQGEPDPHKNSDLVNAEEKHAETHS

One may read the IC50 as the concentration at which inhibition is half-maximal. A high value points to weaker potency in that assay. Consider `Cn1cc([S+]([O-])CCl)c(=O)c2ccc(F)cc21` (racemic) [monochloroflosequinan, 3-chloromethylsulfinyl-7-fluoro-1-methyl-4-quinolone], for which the “inhibition of PDE2” value in experiment [1] (setting [4]) was “Significant inhibition”. For the same molecule, the half-inhibitory concentration (IC50) in experiment [1] (setting [5]) is > 300 µM; in experiment [2], 28.2 µM; in experiment [3] (setting [5]) it was 65.6 µM. In experiment [2] (setting [4]), the “inhibition of PDE3” value is listed as “Significant inhibition”. Also, the “inhibition of PDE1” value in experiment [3] (setting [4]) was “Significant inhibition”.
For orientation: inhibition means the relative decrease from the control value, in per cent. Low values mean a response near the control, high ones a response far below the control. `Cn1cc(S(=O)(=O)CCl)c(=O)c2ccc(F)cc21` [monochloroflosequinan sulfone, 3-chloromethylsulfonyl-7-fluoro-1-methyl-4-quinolone]: the inhibition at 100 µM in experiment [2] (100 μM compound, 25° C., 1% DMSO vehicle) is > 50%. Also, inhibition in experiment [2] was half-maximal at 95.9 µM (IC50).

(Values after US6730790B2, “Chlorinated heterocyclic compounds and methods of synthesis” (R.T. Alamo Ventures I. LLC, priority 2002, dated 2004).)
